# Test results from paper PMC13195669, “GPR3 Ligands Discovered through Combined Virtual and Conformational Biosensor-Based Screening” (Journal of the American Chemical Society, 2026).
# Legend:
# GPR3 = biological target: T1, GPR3 (Homo sapiens, UniProt P46089); assay: Gs heterotrimer dissociation biosensor (Gs-CASE) in HEK293A cells cotransfected with GPR3; format: cell-based; settings: HEK293A transiently transfected with Gs-CASE and GPR3; read-out: EC50 of GPR3-dependent BRET increase, Gs dissociation biosensor
# T1 construct: host or cells: HEK293A, transient
# T1 sequence (P46089 whole entry): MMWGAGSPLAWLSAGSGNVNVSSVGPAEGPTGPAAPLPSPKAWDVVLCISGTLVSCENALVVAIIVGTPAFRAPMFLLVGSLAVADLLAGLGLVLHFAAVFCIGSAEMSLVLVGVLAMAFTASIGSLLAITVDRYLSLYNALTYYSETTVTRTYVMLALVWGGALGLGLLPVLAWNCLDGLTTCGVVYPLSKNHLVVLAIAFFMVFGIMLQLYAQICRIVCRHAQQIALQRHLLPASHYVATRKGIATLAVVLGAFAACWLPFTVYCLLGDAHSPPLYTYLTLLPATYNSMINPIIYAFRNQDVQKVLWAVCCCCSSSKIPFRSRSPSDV
# Text: To further delineate the pharmacological properties of 33, we evaluated its activity in signaling assays downstream of GPR3. […] We also investigated whether 33 blocks the activity of previously validated GPR3 ligands–the agonist DPI and the inverse agonist AF64394 (Chart )–in a cAMP assay. […] The differential effect between OEA and oleamide may reflect differences in their conformational and/or positional flexibility within the GPR3 binding pocket. This difference is supported by MD simulations of oleamide in GPR3 and by a comparison of oleic acid binding poses in the highly similar pockets of GPR3 and GPR6. , […]
# (§1) Cells expressing the conformational GPCR biosensors were grown for 24 h (stable cells) or 48 h (transiently transfected cells) in white 96-well plates and washed with 100 µl of HBSS. […] Three baseline BRET reads were recorded and averaged prior to the addition of serial dilutions of ligands or veh icle control and subsequent BRET reads. […] BRE T donor emission was quantified with a 470/80 nm monochromator. […] Experiments were carried out using a CLARIOstar plate reader.
# (§2) FRET- and BRET-based measurements of cAMP levels and Gs dissociation/reassociation Transfected cells grown in black 96-well plates were washed twice with 100 µl of HBSS 48 h after transfection and incubated with HBSS. […] FRET donor emission was quantified with a 480/10 nm filter. […]
# [1] = system: GPR3 mutant (bulky tryptophan residues in extracellular loop 2); assay: GPR3 conformational biosensor with tryptophan insertions in extracellular loop 2; format: cell-based, human; settings: wildtype vs mutant biosensor; transiently transfected HEK293A
# Text: To develop a hypothesis for the cause of the significant loss in efficacy from VH1 to 33, we computationally predicted the binding poses of both molecules in GPR3 (Figure a). […] In contrast, the cyclopropyl ring of 33 is still buried in the receptor’s transmembrane core. […] We also challenged this binding model of 33 with another GPR3 biosensor variant which harbors the T^3.37A point mutation in transmembrane helix 3. According to an alternative predicted pose of 33 obtained with Boltz-2 (c.f., SI – Materials and Methods section), this mutation should hamper 33 binding to GPR3.
# 5 Proposed binding poses of VH1 and 33. […]
# as §1, §2
EC50 (GPR3) [nM],SMILES,effect of extracellular loop 2 tryptophan insertions on concentration-response [1]
249,N=c1n(Cc2ccccc2)c2ccccc2n1CC1CC1 [compound 33],not affected by these modifications
,N=c1n(Cc2ccccc2)c2ccccc2n1CC(O)COc1ccc(Cl)cc1 (stereo not drawn) [compound 52],right-shifted
